Data: patent US9801880B2, “Use of kinase inhibitors” (BerGenBio AS, priority 2013, dated 2017)
pIC50: −log10 of the molar value.

Experiments:
[1] = tested on: BaF3/wt-BCR-ABL cells; test: Subcutaneous BaF3/wt-BCR-ABL tumor model; format: in vivo; conditions: 25 (or 50) mg/kg twice per day via gavage; NSG mice
Protocol: 6- to 8-week-old male NSG mice were implanted subcutaneously with 1×10^7 BaF3/wt-BCR-ABL or 1×10^7 BaF3/T315I cells per mouse into the right flank. Five days after implantation mice were randomized into groups with a mean volume of approximately 100 mm^3. […] Tumor volume was measured every 2-3 days. Animals were sacrificed at day 12 and tumors embedded for histology.

[2] = target: c-Kit (D816V) (Homo sapiens, UniProt P10721, D816V); test: KinaseProfiler kinase activity assay; format: biochemical; parameters: purchased EMD Millipore Corp. (KinaseProfiler service)
Protocol: KinaseProfiler™ assays (EMD Millipore Corp. Billerica, Mass., USA) are radioligand binding assays with purified or partially-purified human kinases. Most of the KinaseProfiler™ assays are conducted in 20 mM MOPS, 1 mM EDTA, 0.01% Brij-35, 5% Glycerol, 0.1% b-mercaptoethanol, 1 mg/mL BSA. The assay involves the transfer of ^32P from γ-^32P-ATP to the target peptide, followed by washing and trapping of the labeled peptide on a filter. The concentration of γ-^32P-ATP used was at the established Km for ATP.

[3] = target: Other mutations of Abl kinase that arise during development of resistance (Homo sapiens, UniProt P00519); test: Inhibition of other Abl kinase resistance mutations (biochemical assays); conditions: read-out: inhibition range, other mutations of Abl kinase
Description: (§1) Detailed assay methodologies can be found in the relevant references cited herein, or in the KinaseProfiler Service Assay Protocols (v54, 2011) available from EMD Millipore (www.emdmillipore.com), or from the KinomeScan website (www.kinomescan.com), as appropriate. (For a more detailed description of KINOMEscan's assay technology, see: Fabian et al. A small molecule-kinase interaction map for clinical kinase inhibitors. Nat. Biotechnol. 23, 329-336 (2005)). A summary is provided below.
(§2) KinaseProfiler™ assays (EMD Millipore Corp. Billerica, Mass., USA) are […] with purified or partially-purified human kinases. Most of the KinaseProfiler™ assays are conducted in 20 mM MOPS, 1 mM EDTA, 0.01% Brij-35, 5% Glycerol, 0.1% b-mercaptoethanol, 1 mg/mL BSA. The assay involves the transfer of ^32P from γ-^32P-ATP to the target peptide, followed by washing and trapping of the labeled peptide on a filter. The concentration of γ-^32P-ATP used was at the established Km for ATP.

[4] = target: Abl (T315I) (Homo sapiens, UniProt P00519, T315I); test: KinaseProfiler kinase activity assay; format: biochemical; parameters: purchased EMD Millipore Corp. (KinaseProfiler service); conditions: ATP at Km
Description: as §1, §2

[5] = target: Abl(Y253F) (Homo sapiens, UniProt P00519, Y253F); test: KinaseProfiler kinase activity assay; format: biochemical; parameters: purchased EMD Millipore Corp. (KinaseProfiler service); conditions: ATP at Km
Description: as §1, §2

[6] = target: Abl(H396P) (Homo sapiens, UniProt P00519, H396P); test: KinaseProfiler kinase activity assay; format: biochemical; parameters: purchased EMD Millipore Corp. (KinaseProfiler service); conditions: ATP at Km
Description: as §1, §2

[7] = target: Abl(M351T) (Homo sapiens, UniProt P00519, M351T); test: KinaseProfiler kinase activity assay; format: biochemical; parameters: purchased EMD Millipore Corp. (KinaseProfiler service); conditions: ATP at Km
Description: as §1, §2

Sequence of c-Kit (D816V) (P10721 26-976 D816V): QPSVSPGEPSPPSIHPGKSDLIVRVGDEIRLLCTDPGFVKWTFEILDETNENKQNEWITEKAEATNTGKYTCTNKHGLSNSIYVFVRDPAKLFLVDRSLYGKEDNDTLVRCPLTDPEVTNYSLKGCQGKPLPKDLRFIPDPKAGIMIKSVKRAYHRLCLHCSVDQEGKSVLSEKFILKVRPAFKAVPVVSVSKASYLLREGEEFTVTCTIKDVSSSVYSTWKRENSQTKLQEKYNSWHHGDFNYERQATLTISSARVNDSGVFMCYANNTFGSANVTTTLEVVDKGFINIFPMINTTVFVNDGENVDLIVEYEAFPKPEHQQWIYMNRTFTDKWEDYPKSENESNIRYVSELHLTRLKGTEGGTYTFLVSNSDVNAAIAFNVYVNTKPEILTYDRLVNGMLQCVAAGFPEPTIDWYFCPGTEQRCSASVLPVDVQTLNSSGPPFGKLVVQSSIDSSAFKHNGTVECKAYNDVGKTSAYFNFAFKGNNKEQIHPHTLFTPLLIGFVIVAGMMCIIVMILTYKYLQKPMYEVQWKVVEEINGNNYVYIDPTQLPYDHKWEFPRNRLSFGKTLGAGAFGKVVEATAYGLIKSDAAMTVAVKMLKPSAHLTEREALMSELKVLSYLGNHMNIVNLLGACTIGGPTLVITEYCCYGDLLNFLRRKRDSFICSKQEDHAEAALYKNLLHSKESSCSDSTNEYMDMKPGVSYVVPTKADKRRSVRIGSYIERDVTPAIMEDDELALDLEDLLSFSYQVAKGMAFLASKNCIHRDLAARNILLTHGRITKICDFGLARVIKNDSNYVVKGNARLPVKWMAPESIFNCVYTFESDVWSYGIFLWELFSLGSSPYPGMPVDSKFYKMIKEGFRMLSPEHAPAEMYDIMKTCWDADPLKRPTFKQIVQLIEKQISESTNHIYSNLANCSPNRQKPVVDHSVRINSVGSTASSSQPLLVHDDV

Q: What does the source list for `Nc1nc(Nc2ccc3c(c2)CC[C@@H](N2CCCC2)CC3)nn1-c1cc2c(nn1)-c1ccccc1CCC2` [Compound A, 1-(6,7-dihydro-5H-benzo[6,7]cyclohepta[1,2-c]pyridazine-3-yl)-N^3-(7-(S)-(pyrrolidin-1-yl)-6,7,8,9-tetrahydro-5H-benzo[7]annulene-2-yl)-1H-1,2,4-triazole-3,5-diamine]?
A: inhibition of wild type CML in vivo (tumor volume) [1]: potentially inhibits; pIC50 [2]: 6.75; pIC50 [3]: 7.49 to 7.80; IC50 [4]: 4 nM; IC50 [5]: 26 nM; IC50 [6]: 22 nM; IC50 [7]: 32 nM
